pIC50: −log10 of the molar value.
Key:
Assay type in all cases: cell-based
mTORC1 over mTORC2 = mTORC1 over mTORC2 selectivity by comparing pS6K1 and pAKT IC50; conditions: by comparing pS6K1 and pAKT IC50, 90 min
Method: Assay Protocol: • 1. Seed MCF-7 cells in Corning 3701 plate and incubate for 20˜24 hour. 12,000˜16,000 cells will be seeded in 36 μL medium per well. • 2. Change the culture medium with fresh medium and incubate for another 2 hours. • 3. Add 12 μL (4×) compounds into the cell plate by HAMILTON. Final DMSO concentration is 0.5%. Incubate for 90 minutes. • 4. Aspirate 38 μL by HAMILTON, 10 μL rest per well. • 5. Add 10 μL 2× lysis buffer using HAMILTON; total volume in wells is 20 μL. Allow cells to shake for 30 min. Cover plate by plastic foil and store plate at −80° C. up to analysis. • 6. Thaw cell lysate at RT and transfer 10 μL lysate to assay plate (Optiplate-384). • 7. Add 5 μL acceptor beads into assay plate and incubation for 2 hours • 8. Add 5 μL donor beads and incubation for 2 hours • 9. Count the plate by EnSpire Multimode Plate Reader […]
Compounds that are not selective by comparing pS6K1 and pAKT IC50 by kinase assays are indicated by “NO” in the “mTORC1 selective @ 90 min” column of Table 4. […] Compounds that are not selective at the 24 hrs mark are indicated by “NO” in the “mTORC1 selective @ 24 hrs” column of Table 4. “N/A” stands for “not assayed” and “N/C” stands for “not calculated”.

[1] = system: p-Akt 1/2/3 (Ser473) in MCF-7 cells; assay: AlphaLISA Ultra pAKT assay; conditions: Homo sapiens, 1.5 h; MCF7 cells, 90 min
Method: Example 56: AlphaLISA Ultra pAKT Assay
Assay Protocol: • 1. MCF-7 cells in Corning 3701 plate and incubate for 20˜24 hour. 16,000˜20,000 cells will be seeded in 36 μL medium per well. • 2. Change the culture medium with fresh medium and incubate for another 90 minutes. • 3. Add 12 μL (4×) compounds into the cell plate by HAMILTON. Final DMSO concentration is 0.5%. […] Aspirate 38 μL by HAMILTON, 10 μL rest per well. • 5. Add 10 μL 2× lysis buffer using HAMILTON; total volume in wells is 20 μL. Allow cells to shake for 30 min. Cover plate by plastic foil and store plate at −80° C. up to analysis. • 6. Thaw cell lysate at RT and transfer 10 μL lysate to assay plate (Optiplate-384). • 7. Add 5 μL acceptor beads into assay plate and incubation for 2 hours • 8. Add 5 μL donor beads and incubation for 2 hours • 9. Count the plate by EnSpire Multimode Plate Reader

[2] = system: p-p70 S6 Kinase (Thr389) in MCF-7 cells; assay: AlphaLISA Ultra pS6K1 assay; conditions: Homo sapiens, 1.5 h; MCF7 cells, 90 min
Method: Example 55: AlphaLISA Ultra pS6K1 Assay
Assay Protocol: • 1. Seed MCF-7 cells in Corning 3701 plate and incubate for 20˜24 hour. 12,000˜16,000 cells will be seeded in 36 μL medium per well. • 2. Change the culture medium with fresh medium and incubate for another 2 hours. • 3. Add 12 μL (4×) compounds into the cell plate by HAMILTON. Final DMSO concentration is 0.5%. Incubate for 90 minutes. • 4. Aspirate 38 μL by HAMILTON, 10 μL rest per well. • 5. Add 10 μL 2× lysis buffer using HAMILTON; total volume in wells is 20 μL. Allow cells to shake for 30 min. Cover plate by plastic foil and store plate at −80° C. up to analysis. • 6. Thaw cell lysate at RT and transfer 10 μL lysate to assay plate (Optiplate-384). • 7. Add 5 μL acceptor beads into assay plate and incubation for 2 hours • 8. Add 5 μL donor beads and incubation for 2 hours • 9. Count the plate by EnSpire Multimode Plate Reader

| SMILES | pIC50 [1] | pIC50 [2] | mTORC1 selective @ 90 min (mTORC1 over mTORC2) |
| --- | --- | --- | --- |
| CO[C@@H]1C[C@H](C[C@@H](C)[C@@H]2CC(=O)[C@H](C)/C=C(\C)[C@@H](O)[C@@H](OC)C(=O)[C@H](C)C[C@H](C)/C=C/C=C/C=C(\C)[C@H](OCCOC3COC3)C[C@@H]3CC[C@@H](C)[C@@](O)(O3)C(=O)C(=O)N3CCCC[C@H]3C(=O)O2)CC[C@H]1OC(=O)NCCN1CCOCC1 [I-20, [(42S,44R,46R)-4-[(2R)-2-[(27E,29E,31E,32E,38R,39S,40R,41R,43S,45S,47R,48S,50R,51R,61R)-50,61-dihydroxy-51-methoxy-38,39,40,41,52,53-hexamethyl-47-[2-(oxetan-3-yloxy)ethoxy]-54,55,56,57,58-pentaoxo-75,76-dioxa-64-azatricyclohexatriaconta-27,29,31(52),32(53)-tetraen-48-yl]propyl]-46-methoxy-44-cyclohexyl] N-(2-morpholinoethyl)carbamate] | ≤ 6.00 | 8.00 to 9.00 | Yes |
| CO[C@@H]1/C(C)=C/[C@@H](C)C(=O)C[C@@H]([C@H](C)C[C@@H]2CC[C@@H](OC)[C@H](OC)C2)OC(=O)[C@@H]2CCCCN2C(=O)C(=O)[C@]2(O)O[C@@H](CC[C@H]2C)CC(OCCOCCN)/C(C)=C/C=C/C=C/[C@@H](C)C[C@@H](C)C(=O)[C@@H]1OC (stereo partly drawn) [I-22] | ≤ 6.00 | 6.00 to 7.00 | Yes |
| CO[C@@H]1/C(C)=C/[C@@H](C)C(=O)C[C@@H]([C@H](C)C[C@@H]2CC[C@@H](OCCO)[C@H](OC)C2)OC(=O)[C@@H]2CCCCN2C(=O)C(=O)[C@]2(O)O[C@@H](CC[C@H]2C)CC(OCCOCCN)/C(C)=C/C=C/C=C/[C@@H](C)C[C@@H](C)C(=O)[C@@H]1OC (stereo partly drawn) [I-23, (22E,24E,26E,27E,35R,36S,37R,38R,40S,42S,45S,46R,47R,56R)-44-[2-(2-aminoethoxy)ethoxy]-56-hydroxy-45-[(1R)-2-[(1S,3R,4R)-4-(2-hydroxyethoxy)-3-methoxy-cyclohexyl]-1-methyl-ethyl]-46,47-dimethoxy-35,36,37,38,48,49-hexamethyl-66,67-dioxa-58-azatricyclohexatriaconta-22,24,26(48),27(49)-tetraene-50,51,52,53,54-pentone] | ≤ 6.00 | 6.00 to 7.00 | Yes |
| CO[C@@H]1/C(C)=C/[C@@H](C)C(=O)C[C@@H]([C@H](C)C[C@@H]2CC[C@@H](OP(C)(C)=O)[C@H](OC)C2)OC(=O)[C@@H]2CCCCN2C(=O)C(=O)[C@]2(O)O[C@@H](CC[C@H]2C)C[C@H](OCC2COCCO2)/C(C)=C/C=C/C=C/[C@@H](C)C[C@@H](C)C(=O)[C@@H]1OC (stereo partly drawn) [I-25, (27E,29E,31E,32E,35R,36S,37R,38R,40S,42S,44S,45S,47R,48R,57R)-45-[(1R)-2-[(1S,3R,4R)-4-dimethylphosphoryloxy-3-methoxy-cyclohexyl]-1-methyl-ethyl]-44-(1,4-dioxan-2-ylmethoxy)-57-hydroxy-47,48-dimethoxy-35,36,37,38,49,50-hexamethyl-68,69-dioxa-58-azatricyclohexatriaconta-27,29,31(49),32(50)-tetraene-51,52,53,54,55-pentone] | ≤ 6.00 | 7.00 to 8.00 | Yes |
| COCCOCCO[C@@H]1C[C@@H]2CC[C@@H](C)[C@@](O)(O2)C(=O)C(=O)N2CCCC[C@H]2C(=O)O[C@H]([C@H](C)C[C@@H]2CC[C@@H](OP(C)(C)=O)[C@H](OC)C2)CC(=O)[C@H](C)/C=C(\C)[C@@H](OC)[C@@H](OC)C(=O)[C@H](C)C[C@H](C)/C=C/C=C/C=C/1C [I-33, (25E,27E,29E,30E,36R,37S,38R,39R,41S,43S,45R,46S,47R,48R,57R)-46-[(1R)-2-[(1S,3R,4R)-4-dimethylphosphoryloxy-3-methoxy-cyclohexyl]-1-methyl-ethyl]-57-hydroxy-47,48-dimethoxy-45-[2-(2-methoxyethoxy)ethoxy]-36,37,38,39,49,50-hexamethyl-66,67-dioxa-58-azatricyclohexatriaconta-25,27,29(49),30(50)-tetraene-51,52,53,54,55-pentone] | ≤ 6.00 | 8.00 to 9.00 | Yes |

The next lines start with results.

| pIC50 [1] | pIC50 [2] | SMILES | mTORC1 selective @ 90 min (mTORC1 over mTORC2) |
| --- | --- | --- | --- |
| ≤ 6.00 | 8.00 to 9.00 | CO[C@@H]1C[C@H](C[C@@H](C)[C@@H]2CC(=O)[C@H](C)/C=C(\C)[C@@H](O)[C@@H](OC)C(=O)[C@H](C)C[C@H](C)/C=C/C=C/C=C(\C)C(OCCOC3COC3)C[C@@H]3CC[C@@H](C)[C@@](O)(O3)C(=O)C(=O)N3CCCC[C@H]3C(=O)O2)CC[C@H]1OCCCN1CCN(C)CC1 (stereo partly drawn) [I-15, (28E,30E,32E,33E,40R,41S,42R,43R,45S,47S,50S,52R,53R,62R)-52,62-dihydroxy-53-methoxy-50-[(1R)-2-[(1S,3R,4R)-3-methoxy-4-[3-(4-methylpiperazin-1-yl)propoxy]cyclohexyl]-1-methyl-ethyl]-40,41,42,43,54,55-hexamethyl-49-[2-(oxetan-3-yloxy)ethoxy]-74,75-dioxa-65-azatricyclohexatriaconta-28,30,32(54),33(55)-tetraene-56,57,58,59,60-pentone] | Yes |
| ≤ 6.00 | 8.00 to 9.00 | CO[C@@H]1C[C@H](C[C@@H](C)[C@@H]2CC(=O)[C@H](C)/C=C(\C)[C@@H](O)[C@@H](OC)C(=O)[C@H](C)C[C@H](C)/C=C/C=C/C=C(\C)[C@H](OCCOC3COC3)C[C@@H]3CC[C@@H](C)[C@@](O)(O3)C(=O)C(=O)N3CCCC[C@H]3C(=O)O2)CC[C@H]1OC(=O)N(C)CCN1CCOCC1 [I-17, [(43S,45R,47R)-4-[(2R)-2-[(28E,30E,32E,33E,39R,40S,41R,42R,44S,46S,48R,49S,51R,52R,62R)-51,62-dihydroxy-52-methoxy-39,40,41,42,53,54-hexamethyl-48-[2-(oxetan-3-yloxy)ethoxy]-55,56,57,58,59-pentaoxo-76,77-dioxa-64-azatricyclohexatriaconta-28,30,32(53),33(54)-tetraen-49-yl]propyl]-47-methoxy-45-cyclohexyl] N-methyl-N-(2-morpholinoethyl)carbamate] | Yes |
| ≤ 6.00 | > 9.00 | CO[C@@H]1C[C@H](C[C@@H](C)[C@@H]2CC(=O)[C@H](C)/C=C(\C)[C@@H](O)[C@@H](OC)C(=O)[C@H](C)C[C@H](C)/C=C/C=C/C=C(\C)C(OCCOC3COC3)C[C@@H]3CC[C@@H](C)[C@@](O)(O3)C(=O)C(=O)N3CCCC[C@H]3C(=O)O2)CC[C@H]1OC(=O)NCCN1CCOCC1 (stereo partly drawn) [I-19, [(42S,44R,46R)-4-[(2R)-2-[(27E,29E,31E,32E,38R,39S,40R,41R,43S,45S,48S,50R,51R,61R)-50,61-dihydroxy-51-methoxy-38,39,40,41,52,53-hexamethyl-47-[2-(oxetan-3-yloxy)ethoxy]-54,55,56,57,58-pentaoxo-75,76-dioxa-64-azatricyclohexatriaconta-27,29,31(52),32(53)-tetraen-48-yl]propyl]-46-methoxy-44-cyclohexyl] N-(2-morpholinoethyl)carbamate] | Yes |
| ≤ 6.00 | 7.00 to 8.00 | COCCOCCO[C@@H]1C[C@@H]2CC[C@@H](C)[C@@](O)(O2)C(=O)C(=O)N2CCCC[C@H]2C(=O)O[C@H]([C@H](C)C[C@@H]2CC[C@@H](OC)[C@H](OC)C2)CC(=O)[C@H](C)/C=C(\C)[C@@H](OC)[C@@H](OC)C(=O)[C@H](C)C[C@H](C)/C=C/C=C/C=C/1C [I-30, (24E,26E,28E,29E,35R,36S,37R,38R,40S,42S,44R,45S,46R,47R,56R)-45-[(1R)-2-[(1S,3R,4R)-3,4-dimethoxycyclohexyl]-1-methyl-ethyl]-56-hydroxy-46,47-dimethoxy-44-[2-(2-methoxyethoxy)ethoxy]-35,36,37,38,48,49-hexamethyl-64,65-dioxa-57-azatricyclohexatriaconta-24,26,28(48),29(49)-tetraene-50,51,52,53,54-pentone] | Yes |

— patent publication US20220267352A1, “RAPAMYCIN ANALOGS AND USES THEREOF” (Anakuria Therapeutics, Inc., priority 2021, published 2022)
